Reference: patent US12013390B2, “EBIV nucleic acid composition and application thereof” (Wuhan Institute of Virology, Chinese Academy of Sciences, priority 2022, dated 2024)

Tested on: BHK-21 cells
Test: Cell viability per well (percentage of cells remaining) observed under a microscope in the drug screening test
Format: cell-based, hamster
Conditions: infected BHK-21 cells with drug, 36 hours
Description: (1) A 96-well plate for BHK-21 cells was prepared. The cells were planked at 10^4 cells/well. The plate was cultured in a cell incubator with a temperature of 37° C. and a CO2 concentration of 5%. The drug screening test was conducted when the cells grew to 40-50%. The drug to be tested was dissolved in dimethyl sulfoxide. Then the drug was diluted to 100 μM with DMEM medium containing 2% FBS. After that, the drug was subjected to serial 2-fold dilution to obtain the dilution gradient with the concentration of 100 μM, 50 μM, 25 μM, 12.5 μM, 6.25 μM, 3.125 μM, and 1.5625 μM, respectively (the concentration of DMSO in the diluted drug shall be <0.1%).
(2) The original culture medium was removed from the 96-well plate. The virus was inoculated into the 96-well plate at an MOI of 0.01 and a volume of 100 μL/well. At the same time, the diluted drugs to be tested were respectively added into the same 96-well plate at 100 μL/well and mixed well with the virus solution. The plate was incubated in a cell incubator with a temperature of 37° C. and a CO2 concentration of 5% for 36 hours before detection.
(4) Cell viability per well (and the percentage of cells remaining per well) was observed under a microscope and the half-maximal effect concentration (EC50) of the drug was calculated using GraphPad Prism 9 software and an EC50 graph was plotted.

Compound	Cell viability	further results
C[C@H](CCC(=O)O)[C@H]1CC[C@H]2[C@@H]3[C@H](O)C[C@@H]4C[C@H](O)CC[C@]4(C)[C@H]3CC[C@]12C [Chenodeoxycholic acid, reference compound]	70%	–
C[C@@]12C(=O)OC(=O)[C@]1(C)[C@H]1CC[C@@H]2O1 [Cantharidin]	50%	–
Oc1cc(O)c2c(c1)O[C@H](c1cc(O)c(O)c(O)c1)[C@H](O)C2 [Epigallocatechol]	0%	–
C=C[C@H]1[C@H](O[C@@H]2O[C@H](CO)[C@@H](O)[C@H](O)[C@H]2O)OC=C(C(=O)OC)[C@H]1CC(=O)O [Secoxyloganin]	100%	Cell viability (listed as secoxyloganin): 100%
CC(C)=CCc1c(O)ccc(C(=O)/C=C/c2ccc(O)cc2)c1O [Isobavachalcone]	30%	–
CC(C)=CCc1cc2c(cc1O)oc(=O)c1c3ccc(O)cc3oc21 [Psoralidin]	50%	–
COc1ccc(-c2cc(=O)c3c(O)cc(O[C@@H]4O[C@H](CO[C@@H]5O[C@@H](C)[C@H](O)[C@@H](O)[C@H]5O)[C@@H](O)[C@H](O)[C@H]4O)cc3o2)cc1O [Diosmin, reference compound]	100%	Cell viability (listed as diosmin): 100%
Clinodiside Aogenin A	100%	Cell viability (listed as clinodiside A): 100%
CC(C)=CCC(OC(=O)C=C(C)C)C1=CC(=O)c2c(O)ccc(O)c2C1=O (stereo not drawn) [Beta, beta-dimethyl acryl shikonin]	70%	–
